The source of these data is publication PMC8110578, “Phenylethynylbenzyl-modified biguanides inhibit pancreatic cancer tumor growth” (Scientific Reports, 2021).

The test system of series [1] is HPNE cells (normal immortalized pancreatic epithelial cells). Kind of series: Growth assay (crystal violet), HPNE cells. The class given is cell-based, human. As to conditions: 3 days treatment, crystal violet retention assay. On the procedure: . The IC50 of most of the synthetic biguanides in HPNE cells was higher than for cancer cells (Supplementary Table S12).
(§1) All chemicals were purchased from Aldrich Chemicals in their highest purity and used without further purification. Deuterated dimethylsulfoxide (DMSO-d^6) and deuterated chloroform (CDCl3) were purchased from CDN Isotopes. NMR spectra were recorded on Bruker advance 400 and 100 spectrometers. Coupling constants are given in hertz (Hz) and chemical shifts are given in parts per million (ppm, δ) measured relative to the residual solvent (the multiplicity of the signals are given as s: singlet, d: doublet, t: triplet, and m: multiplet). High-resolution mass spectra (HRMS) were recorded on a TSQ Quantum Ultra (Thermo Scientific) triple quadrupole with accurate mass option instrument (Université de Montréal Mass Spectrometry Facility). MS experiences were performed using an UltrafleXtreme MALDI TOF/TOF mass spectrometer equipped with a SmartBeam II Nd:Yag/355 nm laser operating at 1 kHz and providing a laser focus down to 20 μm in diameter (Bruker Daltonics, Billerica, MA). The data acquisition for MS was performed in positive ion mode using the linear geometry with flexControl 3.4 (Bruker Daltonics, Billerica, MA). Acceleration voltage was set to + 25 kV and all other instrumental parameters (delayed extraction parameters, source voltages, detector gain, laser energy, etc.) were optimized for maximum S/N for the drug compounds. L-α-Phosphatidylcholine was purchased from Avanti Polar Lipids. Transport and depolarization studies as well as absorbance measurements were performed on a Varian Cary Eclipse fluorescence spectrophotometer. The hemolysis assays were performed on a Fluostar Optima plate reader. Single crystals of C18H18F3N5O3S were obtained from chloroform. A suitable crystal was selected and analysed on a Bruker Venture Metaljet diffractometer. Crystal violet retention assay was used for cell growth assays and IC50 were determined using Prism (GraphPad). NAD/NADH quantitation colorimetric kit (#K337-100) from Biovision was used according to manufacturer’s instructions. ECAR (extracellular acidification rate) and OCR of KP4 cells (oxygen consumption rate) were measured on a Seahorse XF-24 (Agilent).
(§2) Experimental. KP4 (Riken RCB1005) and PSN1 (ATCC: CRM-CRL-3211), were cultured in Dulbecco's modified Eagle's medium (DMEM) (Wisent, St-Bruno, QC) supplemented with 10 % of fetal bovine serum (FBS) (Wisent). HPNE hTERT (ATCC: CRL1423) were cultured in a mix of 75% DMEM without glucose (Sigma Cat#. D-5030) with additional 2 mM L-glutamine and 1.5 g/L sodium bicarbonate, 25% Medium M3 Base (Incell Corp. Cat# M300F- 500), fetal bovine serum 5% (wisent 10 ng/ml human recombinant EGF (Sigma-Aldrich), 5.5 mM D-glucose (Sigma-Aldrich), 750 ng/ml puromycin (Sigma-Aldrich). For dose-response assays, cells were seeded in 96 well plates (company). After 24 h, treatments were applied and cells were grown for 3 more days. Crystal violet retention assay used for cell growth assays were described previously^2. The data is expressed as relative absorbance of crystal violet extracted from the cells and diluted in 10 % acetic acid. IC50 were determined using Prism (GraphPad). Tumor spheres were grew according to Ferbeyre et al^3.

For series [2], the system named is KP4 cells. As to the kind of experiment: Growth assay (crystal violet), KP4 cells. In kind it is cell-based, human. Particulars: Homo sapiens, KP-4, 72 h, KP4 cells, 3 days treatment, crystal violet retention assay; read-out: IC50 KP4. As to the method:
as §1, §2

The subject of series [3] is red blood cells. As to the kind of experiment: Hemolytic activity of PEB-biguanidium salts. In kind it is cell-based. As to conditions: red blood cells 2% v/v in PBS, 1 h at 37 °C. On the procedure:
The toxicity of PEB-Biguanidiums salts was estimated through their hemolytic activity by incubating red blood cells (RBC) with the compounds for 1 h (See Supplementary Table S13 and Supplementary Fig. S29).
Experimental. Red blood cells in Alsever’s solution were centrifuged for 10 min at 300g, washed 3 times with PBS buffer, and resuspended in PBS at 2% v/v. To each well of a 96-well plate, 195 µL of red blood cell solution and 5 µL of biguanidium salt in DMSO were added, and the plate was incubated with light agitation for 1 h at 37 °C. The plate was then centrifuged for 10 min at 300g, and 50 µL of the supernatant solution of each well was transferred to another plate. Absorbance was measured at λ = 405 nm. Each measurement was performed in triplicate in three different experiments.

Series [4] relates to NB508 mouse pancreatic ductal adenocarcinoma cells. As to the kind of experiment: In vitro growth inhibition screen at 5 µM, NB508 cells. The class given is cell-based. Particulars: 72 h at 37 °C. An excerpt:
(§3) Figure 1 (A) Structure and crystal packing of previously studied PEB-disubstituted (A.1) and monosubstituted (A.2 and A.3) benzimidazolium salts. Compound A.1 is an efficient chloride transporter forming channels and generating holes in bacterial membranes and red blood cellular membranes. Compound A.2 penetrates phospholipid membranes but is less efficient as ion transporter as it forms more compact aggregates; its toxicity on RBC is lower than compound A.1. The replacement of the phenyl group with a methyl group in compound A.3 results in the formation of even more compact aggregates with even lower toxicity on RBC. (B) Structure of PEB-substituted biguanidium salts. For each biguanide we prepared three series of biguanidium salts with different counterions. (C) Synthesis of 4-(phenylethynyl)benzylbiguanide 1 and 4-(phenylethyl)benzylbiguanide 2; (a) Phenylacetylene, PdCl2PPh3, CuI, PPh3, Et3N, THF, 70 °C, o.n. (b) NaCN(BH3)3, EtOHNH4OAc sat./NH3, 80 °C, o.n (c) Dicyandiamide, TMSCl, THFanh., 145 °C, 1 h (d) Pd/C 10%, H2, EtOH/AcOEt, 60 °C, 2 h. (D) Synthesis of 4-(phenylethynylphenyl)biguanidium 3 and 4-(phenylethylphenyl)biguanidium 4 (a) (1) Boc2O, THF, 2 h, (2) Phenylacetylene, PdCl2PPh3, CuI, PPH3, Et3N, THF, 70°, o.n. (b) TFA, DCM, 60 °C, 2 h (c) Dicyandiamide, TMSCl, THFanh, 145 °C, 1 h (d) Pd/C 10%, H2, EtOH/AcOEt, 60 °C, 2 h. The NMR spectra of the synthesized compounds are given in Supplementary Figs. S1–S24. (E) Relative growth of NB508 mouse pancreatic ductal adenocarcinoma cells and IMR90 fibroblasts exposed to 5 µM of PEB-biguanidium salts. Cells were incubated for 72 h at 37 °C. Errors bars represent the standard error of the mean (SEM), *p < 0.05, **p < 0.01, Student’s t test. (F) Crystal structure of 1b showing its self-assembly in the solid state. Crystal data is available in Supplementary Tables S1–S8 and crystal packing in Supplementary Fig. S25. TEXT PRINTED IN THE PICTURE: (A) A.1: HC50: 0.15 mM | (A) A.2: HC50: 1 mM | (A) A.3: HC50: 150 mM
NB508 is an aggressive pro-metastatic pancreatic cancer cell line that we used previously to study the role of mitochondria in pancreatic cancer. […].

Series [5] relates to IMR90 fibroblasts. As to the kind of experiment: In vitro growth inhibition screen at 5 µM, IMR90 fibroblasts. In kind it is cell-based, human. As to conditions: 72 h.
Text: as §3, with “The NMR spectra of the synthesized compounds are given in Supplementary Figs. S1–S24. (E) Relative growth of NB508 mouse pancreatic ductal adenocarcinoma cells and IMR90 fibroblasts exposed to 5 µM of PEB-biguanidium salts. Cells were incubated for 72 h at 37 °C. Errors bars represent the standard error of the mean (SEM), *p < 0.05, **p < 0.01, Student’s t test. (F) Crystal structure of 1b showing its self-assembly in the solid state. Crystal data is available in Supplementary Tables S1–S8 and crystal packing in Supplementary Fig. S25. TEXT PRINTED IN THE PICTURE: (A) A.1: HC50: 0.15 mM | (A) A.2: HC50: 1 mM | (A) A.3: HC50: 150 mM” left out

Series [6] is described as follows: U-tube experiment (partition across a bulk hydrophobic solvent). In kind it is physicochemical. Particulars: 250 µM on cis side, up to 72 h. On the procedure:
(§4) Figure 2 (A) Partition of compounds in an U-tube experiment. Concentration of biguanide on the trans-side of the U-tube at 48 h and 72 h at 25 °C, after addition of 250 µM of biguanide on the cis-side. (B) Variation in the internal pH of HPTS-containing EYPC liposomes. Intravesicular solution: 1 mM HPTS, 10 mM HEPES, and 100 mM NaCl, adjusted to pH = 7.4, and extravesicular solution: 10 mM HEPES and 100 mM NaCl, adjusted to pH = 7.4. Biguanidiums were injected after 50 s at 5 mM (50 mol% relative to the 10 mM EYPC concentration), a NaOH pulse was induced at 300 s, and the liposomes were lysed with Triton-X at 550 s. Each curve is the average of three independent measurements. (C) Fluorescence of safranin O in the EYPC liposomes. Biguanidium salts were injected at 5 mM (50 mol% relative to the 10 mM EYPC concentration) at 50 s. Each curve is the average of three independent measurements. […] Mitochondrial isolation was performed according to the previously reported protocol.
Experimental. U-tube experiment was prepared by adding 800 µL of dichloromethane in a U-shaped tube as a representation of the hydrophobic lipid membrane. On the receiving end (trans side) of the tube was added 300 µL of distilled water while the other side (cis side) was filled with 300 µL of a 250 µM solution of the compound of interest at 25°C. At 48h and 72h, 100 µL aliquot of the trans side was diluted in 900 µL methanol and monitored by LCMS (292 m/z). Area under curve (AUC) was measured and fitted on a calibration curve.

The subject of series [7] is KP4 tumor sections. As to the kind of experiment: KI67 and cleaved caspase 3 staining of tumor sections from treated mice. The class given is in vivo, nude mice. Particulars: 50 mg/kg, tumor sections after treatment. An excerpt:
(B) Body weight of mice seven days after treatment. […] Representative images shown. Scale bar = 100 µm.
To assess the mechanism of the antitumor activity, we stained tumor sections obtained from animals after the treatment protocol for proliferation marker KI67 and apoptosis marker cleaved caspase 3, and quantified the data according to the scoring key in Fig. 5C. […] However, there were no significant differences in staining for cleaved caspase 3 […].

Series [8] is described as follows: Safranin O assay, membrane potential of EYPC liposomes. As to conditions: 5 mM (50 mol% relative to 10 mM EYPC). On the procedure:
as §4

Series [9] in a line: HPTS assay, internal pH of EYPC liposomes. Particulars: 5 mM (50 mol% relative to 10 mM EYPC), NaOH pulse at 300 s. As to the method: as §4
Series [10] concerns KP4 cells sub-cutaneous xenografts. As to the kind of experiment: KP4 sub-cutaneous xenografts in nude mice. As to conditions: 50 mg/kg/day IP, 5 day/week, from day 11 post engraftment, 37 days. The source says:
This dose was chosen from previous work on biguanides to treat mice with pancreatic cancer.
Figure 5 Progression of the volume of KP4 cells sub-cutaneous xenografts performed in nude mice over 37 days. […] (B) Body weight of mice seven days after treatment. […] Representative images shown. Scale bar = 100 µm. […] Results are shown in graphics comparing the percentage of cells stained in each category and the intensity of staining. (E,G) Images of the most representative phenotypes for KI67 staining (E) and cleaved caspase 3 (G).
Experimental. All experiments were performed in accordance to the rules of the in vivo ethical committe of University of Montreal (CDEA #17-103). 6-7 weeks old female nude mice (Hsd:Athymic Nude- Foxn1nu, Envigo) were implanted sub-cutaneously with 750.000 KP4 cells in 100μl of a sterile mix of 20% Matrigel (Corning) in saline solution. Tumor volume was determined by using a caliper, following the formula 4/3*Π*(L*W*T) were L represent the length of the tumor, W, the width, and T, the thickness (all measured in millimeter). […] The compounds were dissolved in the vehicle: 45% Propyleneglycol (Sigma-Aldrich) +5% Tween 80 (Sigma-Aldrich) + ddH2O.

As to `N=C(N)NC(=N)NCc1ccc(C#Cc2ccccc2)cc1` [1a, 4-(phenylethynyl)benzylbiguanide], the IC50 (commonly the concentration that inhibits the measured activity by half) in [1] was 16.1 µM. In series [2], the IC50 was 7.55 µM. In [3], the “HC 10% (µM)” value is greater than 175 µM and the “HC 10% (µg/ml)” value is greater than 100 µg/mL. Also, the “Growth inhibition of NB508 cells” value in series [4] was “most important antiproliferative activities”. Further, the “Selectivity towards cancer cells (NB508 vs IMR90 fibroblasts)” value in series [5] was “good selectivity towards cancer cells”.
Consider `[H]/N=C(/N)N/C(=N/[H])NCCc1ccccc1` [phenformin, reference compound], for which the “Crossing to the trans-aqueous side of the U-tube (in words)” value in [6] is reported as “only traces”. The “KI67 staining in tumors” value in [7] is recorded as “to a smaller extent”. Also, the “Membrane depolarization (Safranin-O fluorescence)” value in series [8] is listed as “did not show this activity”. Also, in series [9], the “Change of internal vesicular pH (HPTS)” value is on record as “no membrane activity”. Besides, the “Effect on tumor volume” value in series [10] is “only modest or non-significant effects”. Moreover, the “Growth inhibition of NB508 cells” value in series [4] is reported as “no effect was observed”.
